# Laboratory results as given in publication PMC11589570, “Critical assessment of LC3/GABARAP ligands used for degrader development and ligandability of LC3/GABARAP binding pockets” (Nature Communications, 2024).
# “And” between values parts separate entries of the source, which are not always exact repeats. Equal values may be shown once.
# Columns and labels:
# [1] = system: LC3/GABARAPs (human Atg8 family); experiment: FP assay with Cy5-labelled p62 LIR tracer, statements on all LC3/GABARAPs; assay type: binding
# LC3A = LC3A (Homo sapiens, UniProt Q9H492); experiment: Spectral shift assay (Dianthus), cysteine-labelled protein; assay type: binding; settings: Repeat 1 and Repeat 2, listed as 10O5 (4)
# Experimental: Affinity determination using spectral shift mode on Dianthus: To determine dissociation constants, the Dianthus instrument (NanoTemper Technologies GmbH, Germany) was used to monitor molecular interactions. […] Protein was labelled with RED-maleimide 2nd Generation (cat# MO-L014; NanoTemper Technologies GmbH). Labeling was carried out following the manufacturer protocol, using a 3:1 ratio dye:protein. […] Protein was purified in 30 mM HEPES, 100 mM NaCl, 0.05% Tween, pH 7.5. […] Measurements were performed in spectral shift mode with an LED excitation power of 100%. Data were analyzed using the DI.Screening Analysis Software (v.2.0.4) (NanoTemper Technologies GmbH, Germany) and quality criteria values including Δ Ratio, Signal-to-Noise-Ratio, Fit Saturation and KD values were determined.
# [2] = target: T1, NanoLuc-fusion full-length LC3A (Homo sapiens, UniProt Q9H492); experiment: NanoBRET cellular target engagement assay in HEK293T cells; assay type: cell-based; settings: LC3A; 1 µM tracer; compound 4 for tracer 16, compound 3 for tracer 17
# T1 construct: a fluorescent donor (in this case full length LC3A and LC3B); expressed in transfected cells; host or cells: HEK293T (ATCC; CRL-11268)
# Experimental: (§1) NanoBRET cellular target engagement assay: Constructs contained the cDNA of full-length LC3A and LC3B cloned in frame with an N-terminal NanoLuc-fusion. Plasmids were transfected into HEK293T (ATCC; CRL-11268) cells using FuGENE HD (Promega, E2312) and proteins were allowed to express for 20 h. 10O5 and 8F20-based tracers were titrated to the protein as depicted in Supplementary Fig. 4d. For competition experiments, 1 µM of the tracers was pipetted into white 384-well plates (Greiner 781 207) using an Echo 550 acoustic dispenser (Labcyte) containing LC3A/LC3B expressing transfected cells at a density of 2.5 × 10^5 cells/mL in Opti-MEM without phenol red (Life Technologies). The system was allowed to equilibrate for 2 h at 37 °C and 5% CO2 prior to BRET measurements. To measure BRET, NanoBRET NanoGlo Substrate + Extracellular NanoLuc Inhibitor (Promega, N2540) was added as per the manufacturer’s protocol, and filtered luminescence was measured on a PHERAstar plate reader (BMG Labtech) equipped with a luminescence filter pair (450 nm BP filter (donor) and 610 nm LP filter (acceptor)). Competitive displacement data were then plotted using GraphPad Prism 9.3 software using a normalized 3-parameter curve fit. A detailed step-by-step protocol for this assay is described in Schwalm..
# [3] = target: T2, NanoLuc-fusion full-length LC3B (Homo sapiens, UniProt Q9GZQ8); experiment: as above; assay type: cell-based; settings: LC3B; 1 µM tracer; compound 4 for tracer 16, compound 3 for tracer 17
# T2 construct: a fluorescent donor (in this case full length LC3A and LC3B); expressed in transfected cells; host or cells: HEK293T (ATCC; CRL-11268)
# Experimental: as §1
# RPE1 cells = experiment: Cell growth assay (IncuCyte confluence over 72 h); assay type: cell-based; settings: listed as 10O5
# Method in brief: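 Phase confluence (% area covered by cells) imaged every 2 h for 72 h after compound addition; cells in DMEM/10% FBS, seeded 24 h before treatment. Controls were 0.1% DMSO, 250 nM Torin1 and 200 ng/mL Bafilomycin (final). Each point averages three wells.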
# [4] = Cell viability measurements; assay type: cell-based; set-up: Cell viability: scale not given here; settings: two replicate columns; for Cell viability: listed as 10O5
# Excerpt: 1 Source data for Supplementary Fig. 8a-f are provided as a Source Data file.
# LC3B = LC3B (Homo sapiens, UniProt Q9GZQ8); experiment: FP assay with 10O5- and 8F20-based dye-linked tracers 16 and 17; settings: LC3B; compound 3 for tracer 17, compound 4 for tracer 16
# Excerpt: The only experimental difference in our FP assay setup was the addition of 0.05% Tween-20, which is routinely used[27] to suppress unspecific binding of compounds to proteins.
# Fluorescence polarization assay utilizing tracers 16 and 17 for interaction studies with LC3A
# (upper panels) and LC3B (lower panels). The left panels depict protein titration measurements
# detergent in the buffer to suppress unspecific binding. Middle panels depict displacement
# Data were collected in technical
# triplicates with error bars expressing the SD (n=3).
structure (smiles),measurement,setting,value
O=C1Nc2ccc(I)cc2C1=Cc1cc(Br)c(O)c(Br)c1 [compound 4],interaction with LC3/GABARAP family members in FP displacement assay,[1],weak interaction of 10O5 (4) with GABARAP family members
same,Initial Fluorescence,LC3A; compound 15.2588 nM titrated against LC3A,5485.239 and 8498.012
same,Initial Fluorescence,LC3A; compound 30.5176 nM titrated against LC3A,4967.649 and 8590.938
same,Initial Fluorescence,LC3A; compound 61.0352 nM titrated against LC3A,3893.892 and 7432.185
same,Initial Fluorescence,LC3A; compound 122.07 nM titrated against LC3A,3715.765 and 5942.313
same,Initial Fluorescence,LC3A; compound 244.141 nM titrated against LC3A,3805.917 and 4785.866
same,Initial Fluorescence,LC3A; compound 488.281 nM titrated against LC3A,2784.925 and 3093.111
same,Initial Fluorescence,LC3A; compound 976.562 nM titrated against LC3A,3008.559 and 2759.079
same,Initial Fluorescence,LC3A; compound 1953.12 nM titrated against LC3A,2614.532 and 2461.361
same,Initial Fluorescence,LC3A; compound 3906.25 nM titrated against LC3A,2609.726 and 2127.302
same,Initial Fluorescence,LC3A; compound 7812.5 nM titrated against LC3A,2627.775 and 2205.232
same,Initial Fluorescence,LC3A; compound 15625 nM titrated against LC3A,2084.943 and 1892.122
same,Initial Fluorescence,LC3A; compound 31250 nM titrated against LC3A,1913.624 and 1771.147
same,Initial Fluorescence,LC3A; compound 62500 nM titrated against LC3A,1934.175 and 2136.348
same,Initial Fluorescence,LC3A; compound 125000 nM titrated against LC3A,2010.201 and 1874.865
same,Initial Fluorescence,LC3A; compound 250000 nM titrated against LC3A,1863.832 and 1842.946
same,Initial Fluorescence,LC3A; compound 500000 nM titrated against LC3A,1618.141 and 1654.997
same,NanoBRET signal / tracer displacement,[2],No displacement
same,NanoBRET signal / tracer displacement,[3],No displacement
same,RPE1 cell growth,"RPE1 cells; 100 nM, 0 h",16 and 14
same,RPE1 cell growth,"RPE1 cells; 100 nM, 2 h",20 and 13 and 18
same,RPE1 cell growth,"RPE1 cells; 100 nM, 4 h",23 and 14 and 19
same,RPE1 cell growth,"RPE1 cells; 100 nM, 6 h",26 and 14 and 18
same,RPE1 cell growth,"RPE1 cells; 100 nM, 8 h",27 and 16 and 19
same,RPE1 cell growth,"RPE1 cells; 100 nM, 10 h",28 and 17 and 21
same,RPE1 cell growth,"RPE1 cells; 500 nM, 0 h",20 and 18 and 16
same,RPE1 cell growth,"RPE1 cells; 500 nM, 2 h",24 and 18
same,RPE1 cell growth,"RPE1 cells; 500 nM, 4 h",27 and 19
same,RPE1 cell growth,"RPE1 cells; 500 nM, 6 h",29 and 20 and 19
same,RPE1 cell growth,"RPE1 cells; 500 nM, 8 h",32 and 21 and 20
same,RPE1 cell growth,"RPE1 cells; 500 nM, 10 h",35 and 22
same,RPE1 cell growth,"RPE1 cells; 1 uM, 0 h",15 and 13 and 19
same,RPE1 cell growth,"RPE1 cells; 1 uM, 2 h",18 and 17
same,RPE1 cell growth,"RPE1 cells; 1 uM, 4 h",20 and 18
same,RPE1 cell growth,"RPE1 cells; 1 uM, 6 h",21 and 24 and 20
same,RPE1 cell growth,"RPE1 cells; 1 uM, 8 h",21 and 25 and 22
same,RPE1 cell growth,"RPE1 cells; 1 uM, 10 h",23 and 26 and 22
same,RPE1 cell growth,"RPE1 cells; 1 uM, 12 h",25
same,RPE1 cell growth,"RPE1 cells; 3 uM, 0 h",13 and 19 and 16
same,RPE1 cell growth,"RPE1 cells; 3 uM, 2 h",17 and 19
same,RPE1 cell growth,"RPE1 cells; 3 uM, 4 h",20 and 18
same,RPE1 cell growth,"RPE1 cells; 3 uM, 6 h",23 and 21 and 19
same,RPE1 cell growth,"RPE1 cells; 3 uM, 8 h",26 and 20 and 19
same,RPE1 cell growth,"RPE1 cells; 3 uM, 10 h",27 and 24 and 21
same,RPE1 cell growth,"RPE1 cells; 3 uM, 12 h",30 and 23
same,RPE1 cell growth,"RPE1 cells; 5 uM, 0 h",16 and 15 and 17
same,RPE1 cell growth,"RPE1 cells; 5 uM, 2 h",20 and 16 and 19
same,RPE1 cell growth,"RPE1 cells; 5 uM, 4 h",21 and 17
same,RPE1 cell growth,"RPE1 cells; 5 uM, 6 h",24 and 17 and 20
same,RPE1 cell growth,"RPE1 cells; 5 uM, 8 h",29 and 19 and 21
same,RPE1 cell growth,"RPE1 cells; 5 uM, 10 h",28 and 19 and 23
same,RPE1 cell growth,"RPE1 cells; 10 uM, 0 h",16 and 21 and 17
same,RPE1 cell growth,"RPE1 cells; 10 uM, 2 h",22 and 20
same,RPE1 cell growth,"RPE1 cells; 10 uM, 4 h",25 and 21 and 22
same,RPE1 cell growth,"RPE1 cells; 10 uM, 6 h",29 and 22
same,RPE1 cell growth,"RPE1 cells; 10 uM, 8 h",30 and 26 and 23
same,RPE1 cell growth,"RPE1 cells; 10 uM, 10 h",31 and 28 and 24
same,viability at 20 µM,[4]; log concentration [M] -4.69897,104%
same,Cell viability,[4]; log concentration [M] -4.69897,92.5568
same,viability at 7.5 µM,[4]; log concentration [M] -5.12494,94.8%
same,Cell viability,[4]; log concentration [M] -5.12494,95.6466
same,viability at 2.5 µM,[4]; log concentration [M] -5.60206,94.2%
same,Cell viability,[4]; log concentration [M] -5.60206,97.1871
same,viability at […],[4]; log concentration [M] -6.00436,95.7%
same,Cell viability,[4]; log concentration [M] -6.00436,90.9151
same,viability at 0.3 µM,[4]; log concentration [M] -6.52288,104%
same,Cell viability,[4]; log concentration [M] -6.52288,93.3208
same,viability at 0.125 µM,[4]; log concentration [M] -6.90309,101%
same,Cell viability,[4]; log concentration [M] -6.90309,92.1984
same,viability at 0.05 µM,[4]; log concentration [M] -7.30103,103%
same,Cell viability,[4]; log concentration [M] -7.30103,94.2945
same,viability at 0.01625 µM,[4]; log concentration [M] -7.78915,101%
same,Cell viability,[4]; log concentration [M] -7.78915,89.5849
same,viability at […],[4]; log concentration [M] -8.06399,103%
same,Cell viability,[4]; log concentration [M] -8.06399,99.4914
same,viability at 0.005 µM,[4]; log concentration [M] -8.30103,99.7%
same,Cell viability,[4]; log concentration [M] -8.30103,88.3293
same,viability at 0.0021 µM,[4]; log concentration [M] -8.67778,100%
same,Cell viability,[4]; log concentration [M] -8.67778,90.0519
same,displacement of dye-linked tracer by parent compound,LC3B,no displacement
